Where “and” joins values, the source holds several entries; their conditions need not be identical. Equal values may be shown once.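 Results reflect a 48-hour exposure of cells in 96-well plates to compound at five concentrations. Here, GI50 denotes the concentration required for 50% inhibition of growth. TGI: concentration producing complete growth inhibition.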
Columns and labels:
Experiment in all cases: NCI-60 cell line screen, 48 h
ACHN renal = tested on: ACHN renal
HOP-92 NSCLC = tested on: HOP-92 NSCLC
NCI-H23 lung = tested on: NCI-H23 lung
OVCAR-8 ovarian = tested on: OVCAR-8 ovarian
SF-295 CNS = tested on: SF-295 CNS
SN12C renal = tested on: SN12C renal
UACC-62 melanoma = tested on: UACC-62 melanoma
MCF7 breast = tested on: MCF7 breast
NCI/ADR-RES ovarian = tested on: NCI/ADR-RES ovarian
T-47D breast = tested on: T-47D breast

Row | Compound | TGI (ACHN renal) [µM] | TGI (HOP-92 NSCLC) [µM] | TGI (NCI-H23 lung) [µM] | TGI (OVCAR-8 ovarian) | TGI (SF-295 CNS) | TGI (SN12C renal) | TGI (UACC-62 melanoma) [µM] | GI50 (ACHN renal) | GI50 (HOP-92 NSCLC) [µM] | GI50 (NCI-H23 lung) | GI50 (OVCAR-8 ovarian) | GI50 (SF-295 CNS) | GI50 (SN12C renal) | GI50 (UACC-62 melanoma) | TGI (MCF7 breast) | TGI (NCI/ADR-RES ovarian) [µM] | TGI (T-47D breast) [µM] | GI50 (NCI/ADR-RES ovarian) | GI50 (T-47D breast) [µM] | GI50 (MCF7 breast) [µM]
1 | O=C(O)c1c2c(cc3c(=O)cc(-c4ccccc4)oc13)CCCC2 | > 100 | > 100 | > 100 | > 100 µM | > 100 µM | > 100 µM | > 100 |  |  |  |  |  |  |  |  |  |  |  |  | 
2 | CC[PH+](CC)CC.CC[PH+](CC)CC.[Au] | 31.4 | 15.2 | 28.6 | 38.1 µM | 26.9 µM | 31.4 µM | 19.1 | 17.6 µM | 7.43 | 13.3 µM | 17.9 µM | 13.5 µM | 16.1 µM | 3.9 µM |  |  |  |  |  | 
3 | O=C(O)Cc1ccc(N=Nc2c(O)c(C(=O)O)cc3ccccc23)cc1 | > 100 | > 100 |  | > 100 µM | > 100 µM | > 100 µM | > 100 |  |  |  |  |  |  |  | > 100 µM | > 100 | > 100 |  |  | 
4 | O=C1CC(CC(OCc2ccccc2)C(OCc2ccccc2)C(COCc2ccccc2)OCc2ccccc2)CC(=O)N1 (stereo unspecified) | > 100 | > 100 | > 100 | > 100 µM and 48.8 µM | > 100 µM and 28.4 µM | > 100 µM and 54.1 µM |  | > 100 µM and 18.2 µM |  | > 100 µM and 18.6 µM | > 100 µM and 13.7 µM | > 100 µM and 11.2 µM | > 100 µM and 18.6 µM |  | > 100 µM and 31.4 µM | > 100 |  | > 100 µM and 12.8 µM |  | 
5 | C=C1C(=O)O[C@H]2[C@H]1CC/C(CNC(=O)/C=C/c1ccccc1F)=C\CC[C@@]1(C)O[C@@H]21 | 2.53 | 4.13 | 4.42 | 11.8 µM | 20.9 µM | 4.41 µM | 2.94 | 1.12 µM | 1.62 | 1.88 µM | 2.95 µM | 7.16 µM | 1.62 µM | 1.47 µM |  | 26.9 | 4.53 | 3.1 µM | 1.74 | 
6 | O=C(CSSCC(=O)Nc1ccc(Br)cc1)Nc1ccc(Br)cc1 | 30 | 34.1 | 35.2 | 31.6 µM | 28 µM | 30.2 µM | 29.3 |  |  |  |  |  |  |  |  |  |  |  |  | 
7 | O=[N+]([O-])C=C1c2ccccc2-c2ccccc21 | 30.6 |  | 30.4 | 34.2 µM | 33.5 µM | 35.7 µM |  |  |  |  |  |  |  |  |  |  |  |  |  | 
8 | CN(/N=C\c1ccnc2ccccc12)c1ccccc1 | 95.8 | 50 | 48.6 | > 100 µM | 71.5 µM | > 100 µM | 37.2 |  |  |  |  |  |  |  |  |  |  |  |  | 
9 | O=C(CC1(O)C(=O)Nc2c(Cl)cc(Cl)cc21)c1ccc(F)cc1 (stereo unspecified) | > 100 | > 100 | 70.9 | 47.6 µM | > 100 µM | > 100 µM | > 100 |  |  |  |  |  |  |  |  |  |  |  |  | 
10 | CCOC(=O)c1cc(NS(=O)(=O)c2ccc(C)cc2)cc(C(=O)OCC)c1 | > 100 | > 100 | > 100 |  | > 100 µM | > 100 µM | > 100 | 42.3 µM | 32 | 38.5 µM |  | 44.9 µM | 78.1 µM | 44.2 µM | > 100 µM | > 100 | 83.6 | 23.6 µM | 21.1 | 28
11 | CC(C)=NNC(=S)NC12CC3CC(CC(C3)C1)C2 | > 100 | > 100 | > 100 | > 100 µM | > 100 µM | > 100 µM | > 100 |  |  |  |  |  |  |  |  |  |  |  |  | 
12 | Cc1[nH]nc2ncc(C(=O)N3CCC[C@H]3c3ccc(Cl)cc3)cc12 | > 100 | > 100 | > 100 | > 100 µM | > 100 µM | > 100 µM | > 100 | 36.3 µM | 80.7 | > 100 µM | > 100 µM | 63.5 µM | > 100 µM | 44.1 µM | > 100 µM | > 100 |  | > 100 µM |  | 41.6
13 | c1ccc2c(CNCCCCCCCCNCc3cccc4ccccc34)cccc2c1 | 8.36 | 9.92 | 14.8 | 3.5 µM | 3.32 µM | 19.2 µM | 3.24 |  |  |  |  |  |  |  |  |  |  |  |  | 
14 | Cc1ccc(Sc2ccccc2N)cc1 | > 100 | 54.7 | 93.3 | > 100 µM | > 100 µM | > 100 µM | > 100 |  |  |  |  |  |  |  |  |  |  |  |  | 
15 | N#CCc1nnc(N)o1 | > 100 | > 100 | > 100 |  | > 100 µM | > 100 µM | > 100 |  |  |  |  |  |  |  |  |  |  |  |  | 
16 | COc1cc(CCC(=O)NC[C@@H](O)c2ccccc2)ccc1O | > 100 | > 100 | > 100 | > 100 µM | > 100 µM | > 100 µM | > 100 | > 100 µM | > 100 | > 100 µM | > 100 µM | > 100 µM | > 100 µM | > 100 µM | > 100 µM |  | > 100 |  | > 100 | > 100
17 | COC12OCCN(C)C1=CC(=O)C1(C)N=NCC12 (stereo unspecified) | > 100 | > 100 | > 100 | > 100 µM | > 100 µM | > 100 µM | > 100 |  |  |  |  |  |  |  |  |  |  |  |  | 
18 | COc1ccc(-c2[nH]nc(N)c2-c2cc(OC)c(OC)c(OC)c2)cc1 | > 100 | 19.7 | > 32.1 | > 100 µM | > 100 µM | > 57.4 µM | > 100 | 0.0806 µM | 0.148 | 0.0422 µM | 0.0459 µM | 0.0248 µM | 0.0716 µM | 0.0672 µM | > 100 µM |  |  | 0.0283 µM |  | 0.03
19 | CCOC(=O)C1SC(=Nc2ccc(Cl)cc2Cl)N=C1C (stereo unspecified) | > 100 | 62.3 | > 100 | > 100 µM | > 100 µM | > 100 µM | > 100 |  |  |  |  |  |  |  |  |  |  |  |  | 
20 | COC(=O)[C@@H](C)C[C@H](Cc1ccccc1)NC(=O)c1csc([C@@H](C[C@H](C(C)C)N(C)C(=O)[C@@H](NC(=O)[C@H]2CCCN2C)C2CC2)OC(C)=O)n1 | > 25 |  | > 25 | > 25 µM | > 25 µM | > 25 µM | > 25 | 0.00419 µM and 0.0025 µM | 0.000286 | 0.00365 µM and 0.0025 µM | 0.00262 µM and 0.0025 µM | 0.00302 µM and 0.0025 µM | 0.000981 µM and 0.0025 µM | 0.000445 µM and 0.0025 µM | > 25 µM | > 25 |  | 0.276 µM and 0.262 µM |  | 

Source: PubChem BioAssay (NCI)
